Biological target: T1, thiaminase I from C. botulinum (BcmE) (Clostridium botulinum, UniProt A5HZW3)
T1 construct: gene CBO0770
Assay: biochemical

T1 sequence (A5HZW3 1-404): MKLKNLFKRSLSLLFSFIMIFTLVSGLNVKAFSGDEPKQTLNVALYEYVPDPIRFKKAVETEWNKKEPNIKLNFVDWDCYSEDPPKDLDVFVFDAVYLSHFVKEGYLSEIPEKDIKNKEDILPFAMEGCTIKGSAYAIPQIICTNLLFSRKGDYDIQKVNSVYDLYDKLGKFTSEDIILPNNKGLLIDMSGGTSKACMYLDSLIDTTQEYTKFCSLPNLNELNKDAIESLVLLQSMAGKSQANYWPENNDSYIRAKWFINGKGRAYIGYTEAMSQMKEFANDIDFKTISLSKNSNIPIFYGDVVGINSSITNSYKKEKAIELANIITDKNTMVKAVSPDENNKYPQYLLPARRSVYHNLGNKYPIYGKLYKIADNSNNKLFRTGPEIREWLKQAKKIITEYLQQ

O=C1O[C@H]([C@@H](O)CO)C(O)=C1O [ascorbic acid]
IC50: 266 nM
